Data on 28 molecules can be found in PubChem BioAssay (NCI).

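Five compound concentrations were applied to cells in 96-well plates for 48 hours; endpoints were derived by simple linear interpolation of the resulting dose-response curve. Definition used: TGI = concentration required for complete inhibition of growth.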

In the first experiment the test system is EKVX NSCLC. The experiment can be described thus: NCI anticancer screen, dose series, 48 h.
For `c1cc(-c2ccc(-c3ccsc3)s2)cs1`, the TGI was greater than 100 µM.

Regarding `O=C1c2ccccc2N2OC3(N4CCOCC4)CCCC3C12c1ccccc1` (stereo not drawn), the TGI was greater than 100 µM.

In the case of `Cn1c2ccccc2c(=O)c2c(O)cc3c(c21)C1OCC(C)(O)C1O3` (stereo not drawn), the TGI is greater than 100 µM.

For `Cn1c(CNc2ccc(-c3n[nH]c(=S)n3C)cc2)n[nH]c1=S`, the TGI was greater than 100 µM.

The molecule `COC(=O)[C@@]12OC[C@]34C([C@@H](O)C1O)[C@@]1(C)CC(=O)C(OC(=O)CC(C)C(F)(F)F)=C(C)C1C[C@H]3OC(=O)[C@H](O)[C@H]42` (stereo partly drawn) showed a TGI greater than 62.5 µM.

In turn, `COC(CN(C)C(=S)Nc1cccc2ccccc12)OC` returned a TGI greater than 10 µM.

Consider `N#Cc1sc2nc3ccccc3n2c1N`, for which the TGI was greater than 100 µM.

Take `O=C(O)CCCc1ccc2c(c1)CC1(C2)Cc2cc3c(cc2C1)CCCC3`: the TGI was greater than 100 µM.

On to `CN(NC1=NCCO1)c1ccc2ccccc2c1`, for which the TGI was greater than 100 µM.

`CCOC(=O)C1(C/C=C\CBr)CCCC1=O` (stereo not drawn) yielded a TGI greater than 100 µM.

Molecule `COc1ccc(OC)c2sc(N3C(=O)/C(=C/c4cccc(Oc5ccccc5)c4)N=C3c3ccccc3)nc12` displayed a TGI greater than 100 µM.

`Cc1cc(O)c(/C=N/C(N)=S)c(=O)o1` had a TGI greater than 100 µM.

Take `Cc1[nH]n(-c2nc3c(c(=O)[nH]2)CCCC3)c(=O)c1CCO`: the TGI is greater than 100 µM.

For the molecule `Cc1nc2c(sc3nc4c(cc32)CCC4)c(=O)o1`, the TGI was greater than 100 µM.

`Cc1cc2nc3c(C#N)c(-c4ccccc4)/c(=C\Nc4ccc(F)cc4)c(=O)n3c2cc1C` yielded a TGI greater than 100 µM.

In turn, `O=C(c1ccccc1)C1(Br)S(=O)(=O)OCCOS1(=O)=O` yielded a TGI greater than 100 µM.

Consider `C1CCC(N=C2N(C3CCCCC3)C(=NC3CCCCC3)N2C2CCCCC2)CC1`, for which the TGI was greater than 100 µM.

Regarding `O=S(=O)(/N=C(\NO)Nc1ccc(Cl)cc1)c1cc(C(F)(F)F)cc(C(F)(F)F)c1`, the TGI was 30.6 µM.

A further experiment deals with HL-60(TB) leukemia. The experiment can be described thus: NCI anticancer screen, dose series, 48 h.
For the molecule `CC(C)C(Cl)CCC(C)(Cl)C(=O)CBr` (stereo not drawn), the TGI was greater than 100 µM.

Take `Clc1ccc(C=Nc2ccc(Oc3ccc(Cl)cc3)c(Cl)c2)cc1`: the TGI was 63.8 µM.

`C1CSCCSCCCS[C@@H]2CCCCC2SC1` (stereo partly drawn) came in with a TGI greater than 100 µM.

In turn, `Cc1cccc2sc(NC(=O)NS(=O)(=O)n3cnc4ccccc43)nc12` showed a TGI greater than 100 µM.

In turn, `COC(=O)C1CCC(=O)N1CN(C(C)=O)c1cccc(O)c1` (stereo not drawn) showed a TGI greater than 100 µM.

In the case of `NNc1nnc(CCCCCCCCc2nnc(NN)n2N)n1N`, the TGI was greater than 100 µM.

As for `CCOC(=O)c1c(NC(=O)c2ccccc2)c(C#N)c2n1CCCCC2`, the TGI was greater than 100 µM.

Regarding `Oc1c(N2CCCCC2)cc(-c2cc(N3CCCCC3)c(O)c3ccccc23)c2ccccc12`, the TGI was greater than 100 µM.

Consider `c1cc(-c2ccc(-c3ccsc3)s2)cs1`, for which the TGI amounted to 67 µM.

Molecule `O=C1c2ccccc2N2OC3(N4CCOCC4)CCCC3C12c1ccccc1` (stereo not drawn) returned a TGI greater than 100 µM.

Turning to `Cn1c2ccccc2c(=O)c2c(O)cc3c(c21)C1OCC(C)(O)C1O3` (stereo not drawn), the TGI is greater than 100 µM.

Turning to `Cn1c(CNc2ccc(-c3n[nH]c(=S)n3C)cc2)n[nH]c1=S`, the TGI is greater than 100 µM.

Consider `COc1cc(C2c3cc4c(cc3OC(NN)C2C)OCO4)cc(OC)c1O` (stereo not drawn), for which the TGI was found to be 5.32 µM.

Consider `COC(=O)[C@@]12OC[C@]34C([C@@H](O)C1O)[C@@]1(C)CC(=O)C(OC(=O)CC(C)C(F)(F)F)=C(C)C1C[C@H]3OC(=O)[C@H](O)[C@H]42` (stereo partly drawn), for which the TGI was determined as 1.98 µM.

On to `COC(CN(C)C(=S)Nc1cccc2ccccc12)OC`, for which the TGI was greater than 10 µM.

`O=C(O)CCCc1ccc2c(c1)CC1(C2)Cc2cc3c(cc2C1)CCCC3`: the TGI stood at 28.2 µM.

On to `CN(NC1=NCCO1)c1ccc2ccccc2c1`, for which the TGI was 52.7 µM.

Turning to `COc1ccc(OC)c2sc(N3C(=O)/C(=C/c4cccc(Oc5ccccc5)c4)N=C3c3ccccc3)nc12`, the TGI is greater than 100 µM.

On to `Cc1cc(O)c(/C=N/C(N)=S)c(=O)o1`, for which the TGI is 41.2 µM.

In turn, `Cc1[nH]n(-c2nc3c(c(=O)[nH]2)CCCC3)c(=O)c1CCO` came in with a TGI greater than 100 µM.

Molecule `Cc1nc2c(sc3nc4c(cc32)CCC4)c(=O)o1` yielded a TGI greater than 100 µM.

`O=C(c1ccccc1)C1(Br)S(=O)(=O)OCCOS1(=O)=O` had a TGI greater than 100 µM.

In turn, `C1CCC(N=C2N(C3CCCCC3)C(=NC3CCCCC3)N2C2CCCCC2)CC1` registered a TGI greater than 100 µM.

For the molecule `O=S(=O)(/N=C(\NO)Nc1ccc(Cl)cc1)c1cc(C(F)(F)F)cc(C(F)(F)F)c1`, the TGI was determined as 79 µM.

A further experiment relates to MALME-3M melanoma. The experiment in a line: NCI anticancer screen, dose series, 48 h.
In turn, `CC(C)C(Cl)CCC(C)(Cl)C(=O)CBr` (stereo not drawn) gave a TGI of 23 µM.

As to `Clc1ccc(C=Nc2ccc(Oc3ccc(Cl)cc3)c(Cl)c2)cc1`, the TGI came out at 49.2 µM.

Turning to `C1CSCCSCCCS[C@@H]2CCCCC2SC1` (stereo partly drawn), the TGI is greater than 100 µM.

`Cc1cccc2sc(NC(=O)NS(=O)(=O)n3cnc4ccccc43)nc12` returned a TGI of 72 µM.

With `COC(=O)C1CCC(=O)N1CN(C(C)=O)c1cccc(O)c1` (stereo not drawn), the TGI was greater than 100 µM.

`CCOC(=O)c1c(NC(=O)c2ccccc2)c(C#N)c2n1CCCCC2` had a TGI greater than 100 µM.

In the case of `Oc1c(N2CCCCC2)cc(-c2cc(N3CCCCC3)c(O)c3ccccc23)c2ccccc12`, the TGI was 24.3 µM.

`O=C1c2ccccc2N2OC3(N4CCOCC4)CCCC3C12c1ccccc1` (stereo not drawn): the TGI is greater than 100 µM.

As to `Cn1c(CNc2ccc(-c3n[nH]c(=S)n3C)cc2)n[nH]c1=S`, the TGI was greater than 100 µM.

Molecule `COc1cc(C2c3cc4c(cc3OC(NN)C2C)OCO4)cc(OC)c1O` (stereo not drawn) had a TGI of 40.1 µM.

Take `COC(=O)[C@@]12OC[C@]34C([C@@H](O)C1O)[C@@]1(C)CC(=O)C(OC(=O)CC(C)C(F)(F)F)=C(C)C1C[C@H]3OC(=O)[C@H](O)[C@H]42` (stereo partly drawn): the TGI amounted to 3.69 µM.

Consider `COC(CN(C)C(=S)Nc1cccc2ccccc12)OC`, for which the TGI was greater than 10 µM.

Turning to `CC1(C)O[C@@H]2[C@@H](COC(C)(C)O[C@H]2C2SCCCS2)O1`, the TGI is greater than 100 µM.

In turn, `N#Cc1sc2nc3ccccc3n2c1N` came in with a TGI greater than 100 µM.

The molecule `O=C(O)CCCc1ccc2c(c1)CC1(C2)Cc2cc3c(cc2C1)CCCC3` yielded a TGI of 41.5 µM.

In turn, `CN(NC1=NCCO1)c1ccc2ccccc2c1` registered a TGI greater than 100 µM.

In the case of `CCOC(=O)C1(C/C=C\CBr)CCCC1=O` (stereo not drawn), the TGI was greater than 100 µM.

Consider `COc1ccc(OC)c2sc(N3C(=O)/C(=C/c4cccc(Oc5ccccc5)c4)N=C3c3ccccc3)nc12`, for which the TGI is greater than 100 µM.

In the case of `Cc1[nH]n(-c2nc3c(c(=O)[nH]2)CCCC3)c(=O)c1CCO`, the TGI was greater than 100 µM.

`Cc1cc2nc3c(C#N)c(-c4ccccc4)/c(=C\Nc4ccc(F)cc4)c(=O)n3c2cc1C` showed a TGI greater than 100 µM.

`O=C(c1ccccc1)C1(Br)S(=O)(=O)OCCOS1(=O)=O` returned a TGI greater than 100 µM.

In the case of `C1CCC(N=C2N(C3CCCCC3)C(=NC3CCCCC3)N2C2CCCCC2)CC1`, the TGI is greater than 100 µM.

Molecule `O=S(=O)(/N=C(\NO)Nc1ccc(Cl)cc1)c1cc(C(F)(F)F)cc(C(F)(F)F)c1` returned a TGI of 37.1 µM.

The next experiment has as its system NCI/ADR-RES ovarian. The experiment in a line: NCI anticancer screen, dose series, 48 h.
In turn, `CC(C)C(Cl)CCC(C)(Cl)C(=O)CBr` (stereo not drawn) yielded a TGI of 23.6 µM.

With `Clc1ccc(C=Nc2ccc(Oc3ccc(Cl)cc3)c(Cl)c2)cc1`, the TGI was 58.5 µM.

Molecule `Cc1cccc2sc(NC(=O)NS(=O)(=O)n3cnc4ccccc43)nc12` yielded a TGI greater than 100 µM.
